Measured values as given in patent US11241441B2, “Formulations of lixivaptan for the treatment of polycystic disease” (PALLADIO BIOSCIENCES, INC., priority 2017, dated 2022).

What was measured:
[1] = Shoaf, 2013; cited from earlier work
[2] = 90/30 mg split daily dosing; cited from earlier work
Measured Log P = format: physicochemical

Cc1ccccc1C(=O)Nc1ccc(C(=O)N2CCCC(O)c3cc(Cl)ccc32)c(C)c1 (stereo not drawn) [tolvaptan]
exposure in subjects with impaired renal function compared to healthy individuals [1]: increased exposure | individuals with ALT elevations (reported by Woodhead) [2]: approximately 8% | logP (Measured Log P): > 3
